# Biological target: T1, Glucocorticoid Receptor (GR) (Homo sapiens, UniProt P04150)
# T1 construct: purchased Invitrogen P2893
# T1 sequence (P04150 1-777): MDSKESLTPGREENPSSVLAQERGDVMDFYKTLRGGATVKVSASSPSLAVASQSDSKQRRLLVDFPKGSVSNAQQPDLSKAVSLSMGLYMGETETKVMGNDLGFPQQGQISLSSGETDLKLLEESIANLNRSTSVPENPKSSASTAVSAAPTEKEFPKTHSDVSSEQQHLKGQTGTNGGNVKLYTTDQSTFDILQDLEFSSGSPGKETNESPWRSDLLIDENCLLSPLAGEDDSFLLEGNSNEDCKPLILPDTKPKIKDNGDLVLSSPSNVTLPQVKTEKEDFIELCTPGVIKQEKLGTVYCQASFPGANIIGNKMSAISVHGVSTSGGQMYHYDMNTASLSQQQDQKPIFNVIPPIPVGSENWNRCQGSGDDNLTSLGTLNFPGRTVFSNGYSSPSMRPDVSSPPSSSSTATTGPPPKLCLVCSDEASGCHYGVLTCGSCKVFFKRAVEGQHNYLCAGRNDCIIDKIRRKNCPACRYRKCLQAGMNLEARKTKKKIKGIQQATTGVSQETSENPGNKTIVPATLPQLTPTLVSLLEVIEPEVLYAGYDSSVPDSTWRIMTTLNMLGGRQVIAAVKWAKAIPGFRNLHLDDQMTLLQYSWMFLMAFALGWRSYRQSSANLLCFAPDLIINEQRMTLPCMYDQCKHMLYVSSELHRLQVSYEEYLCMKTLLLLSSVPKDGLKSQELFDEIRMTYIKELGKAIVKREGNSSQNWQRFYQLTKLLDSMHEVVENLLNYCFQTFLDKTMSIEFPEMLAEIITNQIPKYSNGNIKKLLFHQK
# Experiment: GR Florescence Polarization Assay (PolarScreen Glucocorticoid Receptor Competitor Assay, Red)
# Conditions: Fluorescense polarization binding ranges; competition with fluorescent glucocorticoid, incubated overnight at 4° C.
# Method: GR Florescence Polarization Assay Florescence polarization assays were carried out using the PolarScreen™ Glucocorticoid Receptor Competitor Assay, Red from Invitrogen (P2893). The assay buffer was prepared according to the manufacturer's protocol and used to dilute the fluorescent glucocorticoid and GR. Compounds were prepared and serial diluted 1:4 in DMSO. Compound, fluorescent glucocorticoid and GR were added in a final volume of 20 μL and incubated overnight at 4° C. Fluorescent polarization was measured on the Perkinelmer Envision®.
row,SMILES,IC50 [nM]
1,Cc1ncccc1NC(=O)c1ccc2c(c1)CCCC1CC(O)(COC(C)C(F)(F)F)CCC21Cc1ccccc1 (mixture of isomers) [Example 100],< 100
2,"Cc1ncccc1NC(=O)c1ccc2c(c1)CCC[C@@H]1C[C@@](O)(C(F)(F)F)CC[C@@]21Cc1ccccc1 (racemic) [Example 3, (7aR,9R,11aS)-11a-Benzyl-9-hydroxy-9-trifluoromethyl-6,7,7a,8,9,10,11,11a-octahydro-5H-dibenzo[a,c]cycloheptene-3-carboxylic acid (2-methyl-pyridin-3-yl)-amide; compound with (7aS,9S,11aR)-11a-benzyl-9-hydroxy-9-trifluoromethyl-6,7,7a,8,9,10,11,11a-octahydro-5H-dibenzo[a,c]cycloheptene-3-carboxylic acid (2-methyl-pyridin-3-yl)-amide]",< 100
3,"Cc1ncccc1NC(=O)c1ccc2c(c1)CCC[C@@H]1CC(=O)CC[C@@]21Cc1ccccc1 (racemic) [Example 8, (7aR,11aS)-11a-Benzyl-9-oxo-6,7,7a,8,9,10,11,11a-octahydro-5H-dibenzo[a,c]cycloheptene-3-carboxylic acid (2-methyl-pyridin-3-yl)-amide; compound with (7aS,11aR)-11a-benzyl-9-oxo-6,7,7a,8,9,10,11,11a-octahydro-5H-dibenzo[a,c]cycloheptene-3-carboxylic acid (2-methyl-pyridin-3-yl)-amide]",< 100
4,"Cc1ncccc1NC(=O)c1ccc2c(c1)CCC[C@H]1CC(=O)CC[C@@]21Cc1ccccc1 (racemic) [Example 11, (7aS,11aS)-11a-Benzyl-9-oxo-6,7,7a,8,9,10,11,11a-octahydro-5H-dibenzo[a,c]cycloheptene-3-carboxylic acid (2-methyl-pyridin-3-yl)-amide; compound with (7aR,11aR)-11a-benzyl-9-oxo-6,7,7a,8,9,10,11,11a-octahydro-5H-dibenzo[a,c]cycloheptene-3-carboxylic acid (2-methyl-pyridin-3-yl)-amide]",< 100
5,"COC[C@@]1(O)CC[C@@]2(Cc3ccccc3)c3ccc(C(=O)Nc4cccnc4C)cc3CCC[C@H]2C1 (racemic) [Example 18, (7aS,9R,11aS)-11a-Benzyl-9-hydroxy-9-methoxymethyl-6,7,7a,8,9,10,11,11a-octahydro-5H-dibenzo[a,c]cycloheptene-3-carboxylic acid (2-methyl-pyridin-3-yl)-amide; compound with (7aR,9S,11aR)-11a-benzyl-9-hydroxy-9-methoxymethyl-6,7,7a,8,9,10,11,11a-octahydro-5H-dibenzo[a,c]cycloheptene-3-carboxylic acid (2-methyl-pyridin-3-yl)-amide]",< 100

# Now from value to compound:
row,IC50 [nM],SMILES
1,100 to 1000,"Cc1ncccc1NC(=O)c1ccc2c(c1)CCC[C@H]1C[C@@H](O)CC[C@@]21Cc1ccccc1 (racemic) [Example 16, (7aS,9S,11aS)-11a-Benzyl-9-hydroxy-6,7,7a,8,9,10,11,11a-octahydro-5H-dibenzo[a,c]cycloheptene-3-carboxylic acid (2-methyl-pyridin-3-yl)-amide; compound with (7aR,9R,11aR)-11a-benzyl-9-hydroxy-6,7,7a,8,9,10,11,11a-octahydro-5H-dibenzo[a,c]cycloheptene-3-carboxylic acid (2-methyl-pyridin-3-yl)-amide]"
2,< 100,"Cc1ncccc1NC(=O)c1ccc2c(c1)CCC[C@H]1C[C@H](O)CC[C@@]21Cc1ccccc1 (racemic) [Example 17, (7aS,9R,11aS)-11a-Benzyl-9-hydroxy-6,7,7a,8,9,10,11,11a-octahydro-5H-dibenzo[a,c]cycloheptene-3-carboxylic acid (2-methyl-pyridin-3-yl)-amide; compound with (7aR,9S,11aR)-11a-benzyl-9-hydroxy-6,7,7a,8,9,10,11,11a-octahydro-5H-dibenzo[a,c]cycloheptene-3-carboxylic acid (2-methyl-pyridin-3-yl)-amide]"

# — patent publication US20120238549A1, “Nuclear Hormone Receptor Modulators” (ABBOTT LABORATORIES, priority 2011, published 2012)
